Legend:
human S1P1 receptor = molecular target: T1, human S1P1 receptor (Homo sapiens, UniProt P21453); test: GTP γ35S binding assay for S1P1 activity; format: biochemical; conditions: membranes of cells stably expressing S1P1 receptor, 30 min at 25° C.
T1 construct: expressed in transfected cells; membranes used
Description: Compounds were tested for S1P1 activity using the GTP γ^35S binding assay. These compounds may be assessed for their ability to activate or block activation of the human S1P1 receptor in cells stably expressing the S1P1 receptor.
GTP γ^35S binding was measured in the medium containing (mM) HEPES 25, pH 7.4, MgCl2 10, NaCl 100, dithitothreitol 0.5, digitonin 0.003%, 0.2 nM GTP γ^35S, and 5 μg membrane protein in a volume of 150 μl. Test compounds were included in the concentration range from 0.08 to 5,000 nM unless indicated otherwise. Membranes were incubated with 100 μM 5′-adenylylimmidodiphosphate for 30 min, and subsequently with 10 μM GDP for 10 min on ice. Drug solutions and membrane were mixed, and then reactions were initiated by adding GTP γ^35S and continued for 30 min at 25° C. Reaction mixtures were filtered over Whatman GF/B filters under vacuum, and washed three times with 3 mL of ice-cold buffer (HEPES 25, pH 7.4, MgCl2 10 and NaCl 100). Filters were dried and mixed with scintillant, and counted for ^35S activity using a β-counter. Agonist-induced GTP γ^35S binding was obtained by subtracting that in the absence of agonist. Binding data were analyzed using a non-linear regression method. In case of antagonist assay, the reaction mixture contained 10 nM S1P in the presence of test antagonist at concentrations ranging from 0.08 to 5000 nM. Activity potency: S1P1 receptor from GTP γ^35S: nM, (EC50),

blood lymphocytes = test: Lymphopenia assay in mice; format: in vivo; conditions: female C57BL6 mice, 10 mg/Kg subcutaneously, after 24 hours
Description: Test drugs are prepared in a solution containing 3% (w/v) 2-hydroxy propyl β-cyclodextrin (HPBCD) and 1% DMSO to a final concentration of 1 mg/ml, and subcutaneously injected to female C57BL6 mice (CHARLES RIVERS) weighing 20-25 g at the dose of 10 mg/Kg. Blood samples are obtained by puncturing the submandibular skin with a Goldenrod animal lancet at 24, 48, 72, and 96 hrs post drug application. Blood is collected into microvettes (SARSTEDT) containing EDTA tripotassium salt. Lymphocytes in blood samples are counted using a HEMAVET Multispecies Hematology System, HEMAVET HV950FS (Drew Scientific Inc.).
(Hale, J. et al Bioorg. & Med. Chem. Lett. 14 (2004) 3351).
A lymphopenia assay in mice; as previously described, was employed to measure the in vivo blood lymphocyte depletion after dosing with (2S)-2-amino-3-oxo-3-({4-[(5-phenylpentyl)oxy]-3-(2-thienyl)phenyl}amino)propyl dihydrogen phosphate. This S1P1 agonist is useful for S1P-related diseases and exemplified by the lymphopenia in vivo response. […] Lymphocytes in blood samples were counted using a HEMAVET Multispecies Hematology System, HEMAVET HV950FS (Drew Scientific Inc.). […]

T1 sequence (P21453 whole entry): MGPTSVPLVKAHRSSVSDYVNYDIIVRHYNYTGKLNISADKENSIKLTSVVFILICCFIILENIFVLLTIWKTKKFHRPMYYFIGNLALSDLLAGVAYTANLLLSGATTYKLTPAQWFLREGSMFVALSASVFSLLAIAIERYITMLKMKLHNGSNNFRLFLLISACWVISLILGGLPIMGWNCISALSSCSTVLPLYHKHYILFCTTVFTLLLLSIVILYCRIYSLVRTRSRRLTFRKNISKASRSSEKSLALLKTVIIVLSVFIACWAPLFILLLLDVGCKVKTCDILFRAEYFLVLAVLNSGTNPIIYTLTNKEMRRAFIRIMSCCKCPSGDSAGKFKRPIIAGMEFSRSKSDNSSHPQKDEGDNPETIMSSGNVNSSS

C[C@](N)(COP(=O)(O)O)C(=O)Nc1ccc(OCCCCCc2ccccc2)c(-c2cccs2)c1 [Compound 2, (2S)-2-amino-2-methyl-3-oxo-3-({4-[(5-phenylpentyl)oxy]-3-(2-thienyl)phenyl}amino)propyl dihydrogen phosphate] was tested, and the EC50 (human S1P1 receptor) was 34 nM.
With “(2S)-2-amino-3-({3-(2-furyl)-4-[(5-phenylpentyl)oxy]phenyl}amino)-3-oxopropyl dihydrogen phosphate [Compound 3]” the EC50 (human S1P1 receptor) was 8 nM.
With N[C@@H](COP(=O)(O)O)C(=O)Nc1ccc(OCCCCCc2ccccc2)c(-c2cccs2)c1 [Compound 4, (2S)-2-amino-3-oxo-3-({4-[(5-phenylpentyl)oxy]-3-(2-thienyl)phenyl}amino)propyl dihydrogen phosphate] the EC50 (human S1P1 receptor) was 3 nM and the “lymphocyte count (number of lymphocytes 10^3/μL blood)” value (blood lymphocytes) was < 1 10^3/μL blood.
For C[C@@](N)(COP(=O)(O)O)C(=O)Nc1ccc(OCCCCCc2ccccc2)c(-c2cccs2)c1 [Compound 1, (2R)-2-amino-2-methyl-3-oxo-3-({4-[(5-phenylpentyl)oxy]-3-(2-thienyl)phenyl}amino)propyl dihydrogen phosphate], the EC50 (human S1P1 receptor) was 96 nM.

Reference: patent publication US8653270B2, “Compounds as receptor modulators with therapeutic utility” (Allergan, Inc., priority 2010, dated 2014)
